Results on twelve compounds are retold here after patent US11767323B2, “Tricyclic pyridone compounds as JAK2 V617F inhibitors” (Incyte Corporation, priority 2020, dated 2023).

Test [1] has as its target catalytic domain (JH1, amino acids 826-1132) of human JAK2 (Homo sapiens (Human), UniProt O60674). Briefly: JAK2 LanthaScreen JH1 Binding Assay. The note with it: JAK2 JH1 1.5 nM, 50 nM tracer, 2 hours at 25° C.; read-out: JH1 BIND IC50. The gist of the method: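 FLAG-tagged biotinylated JAK2 JH1 (1.5 nM) incubated with compounds, 50 nM fluorescent tracer and 0.5 nM streptavidin-Tb in Tris pH 7.5 buffer with MgCl2, BSA, DTT, 2 h at 25 °C.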

Test [2] has as its target pseudo-kinase domain (JH2, amino-acids 536-812) of human V617F mutant JAK2 (Homo sapiens (Human), UniProt O60674, F794H/V617F/W659A/W777A). Briefly: JAK2 LanthaScreen JH2-V617F Binding Assay. The note with it: JAK2 JH2-V617F 0.26 nM, 50 nM tracer, 1 hour at 25° C.; read-out: JH2 BIND V617F IC50. The method, boiled down:
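Biotinylated His-Avi-tagged JH2 protein was baculovirus-expressed and used at 0.26 nM. It was incubated with compound, 50 nM fluorescent JH2 tracer and 0.25 nM streptavidin-Tb for 1 h at 25 °C in pH 7.5 Tris buffer with MgCl2, BSA, DTT. Non-specific binding was defined with 2 mM ATP. IC50 came from four-parameter fits of TR-FRET signal.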

Test [3] concerns the target catalytic domain (JH1, amino acids 808-1132) of human JAK2 (Homo sapiens (Human), UniProt O60674). Briefly: JAK2 HTRF Enzyme Activity Assay. The test is classed as biochemical. To be noted: JAK2 0.015 nM, ATP (30 μM or 1 mM), 60 minutes at 25° C.
Test [4] addresses pseudo-kinase domain (JH2, amino-acids 536-812) of human Wild Type JAK2 (Homo sapiens (Human), UniProt O60674, F794H/W659A/W777A). Briefly: JAK2 LanthaScreen JH2-WT Binding Assay. The note with it: JAK2 JH2-WT 0.145 nM, 50 nM tracer, 1 hour at 25° C.; read-out: JH2 BIND WT IC50. The gist of the method: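 Biotinylated His-Avi-tagged JH2 construct carrying W659A/W777A/F794H surface mutations, 0.145 nM, incubated 1 h at 25° C with compound, 50 nM fluorescent JH2 tracer and 0.25 nM streptavidin-Tb in pH 7.5 Tris buffer. Non-specific binding defined with 2 mM ATP. TR-FRET read; IC50 from four-parameter fit.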

One may read the IC50 as the concentration that inhibits the measured activity by half.

The structures appear in SMILES notation.

catalytic domain (JH1, amino acids 826-1132) of human JAK2, sequence (O60674 826-1132): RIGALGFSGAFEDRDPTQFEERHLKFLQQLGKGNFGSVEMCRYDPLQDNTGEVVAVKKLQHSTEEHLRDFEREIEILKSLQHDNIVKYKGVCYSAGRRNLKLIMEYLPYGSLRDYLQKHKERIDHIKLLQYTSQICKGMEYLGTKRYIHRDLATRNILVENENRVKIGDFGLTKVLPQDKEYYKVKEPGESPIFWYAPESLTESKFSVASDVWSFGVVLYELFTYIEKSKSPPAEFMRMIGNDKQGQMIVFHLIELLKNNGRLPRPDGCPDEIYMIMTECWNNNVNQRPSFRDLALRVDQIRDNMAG
catalytic domain (JH1, amino acids 808-1132) of human JAK2, sequence (O60674 808-1132): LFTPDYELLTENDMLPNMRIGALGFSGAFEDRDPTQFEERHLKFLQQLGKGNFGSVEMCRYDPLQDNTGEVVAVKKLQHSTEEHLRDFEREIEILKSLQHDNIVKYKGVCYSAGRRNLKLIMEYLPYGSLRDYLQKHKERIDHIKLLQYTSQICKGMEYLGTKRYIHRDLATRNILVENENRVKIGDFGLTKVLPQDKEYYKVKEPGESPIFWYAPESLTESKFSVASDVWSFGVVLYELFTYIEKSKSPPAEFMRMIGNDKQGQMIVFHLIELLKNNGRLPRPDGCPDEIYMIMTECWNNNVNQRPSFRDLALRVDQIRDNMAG
pseudo-kinase domain (JH2, amino-acids 536-812) of human Wild Type JAK2, sequence (O60674 536-812 W659A/W777A/F794H): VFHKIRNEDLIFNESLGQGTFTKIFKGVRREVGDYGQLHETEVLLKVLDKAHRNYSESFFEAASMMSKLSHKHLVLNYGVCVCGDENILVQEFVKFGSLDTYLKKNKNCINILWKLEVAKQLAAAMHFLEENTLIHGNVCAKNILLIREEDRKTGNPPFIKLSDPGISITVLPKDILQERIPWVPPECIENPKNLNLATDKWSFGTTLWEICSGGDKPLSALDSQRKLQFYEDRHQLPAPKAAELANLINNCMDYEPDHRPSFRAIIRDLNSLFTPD
pseudo-kinase domain (JH2, amino-acids 536-812) of human V617F mutant JAK2, sequence (O60674 536-812 V617F/W659A/W777A/F794H): as the sequence (O60674 536-812 W659A/W777A/F794H) above, with V82F counted along it

As for `CCn1c(=O)c(-c2ccc(C(=O)O)cc2)cc2c3cc(-c4ccc(CN5CCC(S(C)(=O)=O)CC5)cc4)[nH]c3ncc21` [Example 15, 4-(6-Ethyl-2-(4-((4-(methylsulfonyl)piperidin-1-yl)methyl)phenyl)-7-oxo-6,7-dihydro-3H-pyrrolo[3,2-f][1,7]naphthyridin-8-yl)benzoic acid], the concentration for half-maximal inhibition (IC50) was 1000 to 10000 nM in test [1], 1000 to 10000 nM in test [2], 1000 to 10000 nM in test [3] and 500 to 1000 nM in test [4].

Take `Cc1c(-c2ccc(C#N)cc2)c(=O)n(C)c2cnc3[nH]c(-c4ccc(CN5CCC(S(C)(=O)=O)CC5)cc4)cc3c12` [Example 13, 4-(6,9-Dimethyl-2-(4-((4-(methylsulfonyl)piperidin-1-yl)methyl)phenyl)-7-oxo-6,7-dihydro-3H-pyrrolo[3,2-f][1,7]naphthyridin-8-yl)benzonitrile]: the IC50 was 100 to 500 nM in test [1], ≤ 100 nM in test [2], 100 to 500 nM in test [3] and ≤ 100 nM in test [4].

With `Cn1c(=O)c(-c2ccc(C(=O)O)cc2)cc2c3cc(-c4ccc(CN5CCC(S(C)(=O)=O)CC5)cc4)[nH]c3ncc21` [Example 14, 4-(6-Methyl-2-(4-((4-(methylsulfonyl)piperidin-1-yl)methyl)phenyl)-7-oxo-6,7-dihydro-3H-pyrrolo[3,2-f][1,7]naphthyridin-8-yl)benzoic acid], the IC50 in test [1] was 100 to 500 nM; in test [2], ≤ 100 nM; in test [3] it was 100 to 500 nM; in test [4] it was ≤ 100 nM.

Consider `CS(=O)(=O)C1CCN(Cc2ccc(-c3cc4c(ncc5[nH]c(=O)c(-c6nnn[nH]6)cc54)[nH]3)cc2)CC1` [Example 5, 2-(4-((4-(Methylsulfonyl)piperidin-1-yl)methyl)phenyl)-8-(1H-tetrazol-5-yl)-3,6-dihydro-7H-pyrrolo[3,2-f][1,7]naphthyridin-7-one], for which the IC50 in test [1] is > 10000 nM; in test [2] it was 1000 to 10000 nM; in test [3] it was 1000 to 10000 nM; in test [4], 500 to 1000 nM.

In the case of `Cc1cc(-c2c(-c3ccc(CNC4CCCOC4)cc3)c3c4cc(-c5cnn(C)c5)[nH]c4ncc3n(C)c2=O)on1` (stereo not drawn) [Example 28, 6-Methyl-2-(1-methyl-1H-pyrazol-4-yl)-8-(3-methylisoxazol-5-yl)-9-(4-(((tetrahydro-2H-pyran-3-yl)amino)methyl)phenyl)-3,6-dihydro-7H-pyrrolo[3,2-f][1,7]naphthyridin-7-one], the IC50 in test [1] was 100 to 500 nM; in test [2] it was ≤ 100 nM; in test [3], 100 to 500 nM; in test [4], ≤ 100 nM.

Regarding `Cc1cc(-c2c(-c3ccc(-c4cnn(C)c4CO)cc3)c3c4cc(-c5cnn(C)c5)[nH]c4ncc3n(C)c2=O)on1` [Example 32, 9-(4-(5-(Hydroxymethyl)-1-methyl-1H-pyrazol-4-yl)phenyl)-6-methyl-2-(1-methyl-1H-pyrazol-4-yl)-8-(3-methylisoxazol-5-yl)-3,6-dihydro-7H-pyrrolo[3,2-f][1,7]naphthyridin-7-one], the IC50 in test [1] was 100 to 500 nM; in test [2], ≤ 100 nM; in test [3], 100 to 500 nM; in test [4] it was ≤ 100 nM.

Regarding `CN(C)C(=O)c1cc2c3c(-c4ccc(C5(C#N)CC5)cc4)c(-c4cnn(C)c4)[nH]c3ncc2n(C)c1=O` [Example 44, 1-(4-(1-cyanocyclopropyl)phenyl)-N,N,6-trimethyl-2-(1-methyl-1H-pyrazol-4-yl)-7-oxo-6,7-dihydro-3H-pyrrolo[3,2-f][1,7]naphthyridine-8-carboxamide], the IC50 was 1000 to 10000 nM in test [1], ≤ 100 nM in test [2], 1000 to 10000 nM in test [3] and ≤ 100 nM in test [4].

`COc1c(-c2ccccc2)c(=O)n(C)c2cnc3[nH]c(-c4ccc(CN5CCC(S(C)(=O)=O)CC5)cc4)cc3c12` [Example 20, 9-Methoxy-6-methyl-2-(4-((4-(methylsulfonyl)piperidin-1-yl)methyl)phenyl)-8-phenyl-3,6-dihydro-7H-pyrrolo[3,2-f][1,7]naphthyridin-7-one]: the IC50 was ≤ 100 nM in test [1], 100 to 500 nM in test [2], ≤ 100 nM in test [3] and ≤ 100 nM in test [4].

With `Cn1nccc1-c1cc2c(cnc3[nH]c(-c4ccc(CN5CCC(S(C)(=O)=O)CC5)cc4)cc32)[nH]c1=O` [Example 4, 8-(1-Methyl-1H-pyrazol-5-yl)-2-(4-((4-(methylsulfonyl)piperidin-1-yl)methyl)phenyl)-3,6-dihydro-7H-pyrrolo[3,2-f][1,7]naphthyridin-7-one], the IC50 in test [1], in test [2], in test [3] and in test [4] was 1000 to 10000 nM each time.

For the compound `CN(C)C(=O)c1ccc(-c2c(-c3cnn(C)c3)[nH]c3ncc4c(cc(NC5CCC(CC#N)CC5)c(=O)n4C)c23)cc1` (stereo not drawn) [Example 38, 4-(8-((4-(cyanomethyl)cyclohexyl)amino)-6-methyl-2-(1-methyl-1H-pyrazol-4-yl)-7-oxo-6,7-dihydro-3H-pyrrolo[3,2-f][1,7]naphthyridin-1-yl)-N,N-dimethylbenzamide], the concentration for half-maximal inhibition (IC50) in test [1] is 100 to 500 nM; in test [2] it was ≤ 100 nM; in test [3] it was ≤ 100 nM; in test [4], ≤ 100 nM.

For `Cc1cc(=O)[nH]c2cnc3[nH]c(-c4ccc(CN5CCC(S(C)(=O)=O)CC5)cc4)cc3c12` [Example 17, 9-Methyl-2-(4-((4-(methylsulfonyl)piperidin-1-yl)methyl)phenyl)-3,6-dihydro-7H-pyrrolo[3,2-f][1,7]naphthyridin-7-one], the IC50 in test [1], in test [2], in test [3] and in test [4] was 1000 to 10000 nM in each case.

As for `Cc1ccncc1-c1cc2c3c(-c4ccc(C(=O)N(C)C)cc4)c(-c4cnn(C)c4)[nH]c3ncc2n(C)c1=O` [Example 36, N,N-dimethyl-4-(6-methyl-2-(1-methyl-1H-pyrazol-4-yl)-8-(4-methylpyridin-3-yl)-7-oxo-6,7-dihydro-3H-pyrrolo[3,2-f][1,7]naphthyridin-1-yl)benzamide], the IC50 in test [1], in test [2], in test [3] and in test [4] was ≤ 100 nM in each case.
